Source: ChEMBL document CHEMBL2007661, “Compounds: GSK PKIS; Assays: UNC Frye lab” (2012)
Several values for one entry are separate records, joined by “and”; a condition that tells them apart may be missing. Identical values can stand only once.

How the values were obtained:
Settings in all cases: at 1 µM
[1] = target: T1, Serine/threonine-protein kinase TBK1 (Homo sapiens) (UniProt Q9UHD2)
T1 sequence (whole entry): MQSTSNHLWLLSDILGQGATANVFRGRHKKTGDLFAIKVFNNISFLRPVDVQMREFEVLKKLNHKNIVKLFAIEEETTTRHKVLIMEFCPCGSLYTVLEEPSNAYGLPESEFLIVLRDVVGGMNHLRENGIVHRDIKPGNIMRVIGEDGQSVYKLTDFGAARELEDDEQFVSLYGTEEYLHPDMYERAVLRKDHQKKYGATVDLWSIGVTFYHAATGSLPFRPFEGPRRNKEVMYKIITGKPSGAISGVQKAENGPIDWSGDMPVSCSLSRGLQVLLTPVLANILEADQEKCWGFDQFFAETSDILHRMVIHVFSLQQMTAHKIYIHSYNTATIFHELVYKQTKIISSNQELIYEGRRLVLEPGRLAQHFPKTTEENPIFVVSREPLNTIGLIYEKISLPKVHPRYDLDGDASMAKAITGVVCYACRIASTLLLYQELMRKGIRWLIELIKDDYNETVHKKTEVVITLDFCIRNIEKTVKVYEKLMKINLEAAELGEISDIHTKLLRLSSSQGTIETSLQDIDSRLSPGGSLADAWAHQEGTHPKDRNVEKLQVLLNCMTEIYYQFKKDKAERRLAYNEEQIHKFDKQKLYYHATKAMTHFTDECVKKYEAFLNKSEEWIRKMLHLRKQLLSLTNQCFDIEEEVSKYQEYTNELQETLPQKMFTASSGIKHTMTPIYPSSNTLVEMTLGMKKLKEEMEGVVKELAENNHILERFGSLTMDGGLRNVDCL

[2] = target: T2, Inhibitor of nuclear factor kappa-B kinase subunit alpha (Homo sapiens) (UniProt O15111)
T2 sequence (whole entry): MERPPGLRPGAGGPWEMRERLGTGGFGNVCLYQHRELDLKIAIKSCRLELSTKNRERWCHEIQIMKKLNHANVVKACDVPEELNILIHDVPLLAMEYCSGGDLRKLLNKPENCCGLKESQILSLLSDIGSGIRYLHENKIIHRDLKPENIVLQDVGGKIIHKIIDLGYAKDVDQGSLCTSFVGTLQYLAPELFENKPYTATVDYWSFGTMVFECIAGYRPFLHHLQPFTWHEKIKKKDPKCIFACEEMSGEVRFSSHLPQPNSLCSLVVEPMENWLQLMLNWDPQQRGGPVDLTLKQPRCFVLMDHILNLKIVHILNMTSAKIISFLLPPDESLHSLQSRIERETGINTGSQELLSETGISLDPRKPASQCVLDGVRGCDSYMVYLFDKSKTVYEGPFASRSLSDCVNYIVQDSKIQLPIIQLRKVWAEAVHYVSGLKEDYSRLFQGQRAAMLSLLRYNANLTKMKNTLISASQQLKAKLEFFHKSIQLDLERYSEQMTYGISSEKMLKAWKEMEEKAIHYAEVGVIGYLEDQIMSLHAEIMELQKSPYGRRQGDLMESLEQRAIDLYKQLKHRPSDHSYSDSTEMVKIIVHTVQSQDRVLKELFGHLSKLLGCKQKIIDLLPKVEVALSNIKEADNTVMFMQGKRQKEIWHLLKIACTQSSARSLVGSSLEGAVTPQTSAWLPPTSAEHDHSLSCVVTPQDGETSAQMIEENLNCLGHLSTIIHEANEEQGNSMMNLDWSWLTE

[3] = target: T3, Inhibitor of nuclear factor kappa-B kinase subunit beta (Homo sapiens) (UniProt O14920)
T3 sequence (whole entry): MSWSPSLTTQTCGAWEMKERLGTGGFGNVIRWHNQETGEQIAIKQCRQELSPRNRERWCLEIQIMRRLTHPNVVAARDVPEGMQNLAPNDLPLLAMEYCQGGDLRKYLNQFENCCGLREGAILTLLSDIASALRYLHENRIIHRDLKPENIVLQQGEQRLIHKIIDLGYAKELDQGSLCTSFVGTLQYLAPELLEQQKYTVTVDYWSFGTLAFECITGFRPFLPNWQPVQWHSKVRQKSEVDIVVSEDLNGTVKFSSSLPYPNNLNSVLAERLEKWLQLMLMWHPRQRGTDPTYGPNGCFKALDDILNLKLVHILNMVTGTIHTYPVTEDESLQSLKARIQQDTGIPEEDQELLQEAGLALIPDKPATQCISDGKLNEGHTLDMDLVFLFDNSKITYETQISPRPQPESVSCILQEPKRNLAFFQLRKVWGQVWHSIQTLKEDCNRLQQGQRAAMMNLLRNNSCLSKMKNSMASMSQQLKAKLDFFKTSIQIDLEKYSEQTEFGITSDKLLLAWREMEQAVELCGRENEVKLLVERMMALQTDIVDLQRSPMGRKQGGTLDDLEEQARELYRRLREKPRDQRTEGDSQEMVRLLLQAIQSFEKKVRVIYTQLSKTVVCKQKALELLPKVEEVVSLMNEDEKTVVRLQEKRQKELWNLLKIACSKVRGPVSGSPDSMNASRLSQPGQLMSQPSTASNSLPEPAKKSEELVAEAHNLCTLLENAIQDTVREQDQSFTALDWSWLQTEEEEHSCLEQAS

## COc1cc(Nc2ncc3c(C)nc(-c4cccc(Oc5ccccc5)c4)n3n2)cc(OC)c1OC
[1]
  inhibition: 75% and 71%
[2]
  inhibition: 1% and 2%
[3]
  inhibition: -4% and 0%

## CCc1cccc(CC)c1/C=C/c1cncc(C(=O)NC)c1
[1]
  inhibition: 0% and -2%
[2]
  inhibition: 2% and 1%
[3]
  inhibition: -6% and -4%

## NC(=O)c1sc(-n2cnc3ccccc32)cc1OCc1ccccc1Br
[1]
  inhibition: 0% and 3%
[2]
  inhibition: 0% and -1%
[3]
  inhibition: 1% and 0%

## FC(F)(F)c1ccc(-c2nn3ncccc3c2-c2ccnc(Nc3ccc4c(c3)OCCO4)n2)cc1
[1]
  inhibition: -5% and -7%
[2]
  inhibition: 1% and 0%
[3]
  inhibition: -1% and -3%

## Nc1ncc(-c2cccc(S(N)(=O)=O)c2)c2scc(-c3ccc(F)c(Cl)c3)c12
[1]
  inhibition: 0%
[2]
  inhibition: -2%
[3]
  inhibition: -1% and 0%

## NC(=O)Cc1ccccc1Oc1nccc(-c2c(-c3ccc(F)cc3)ncn2C2CCNCC2)n1
[1]
  inhibition: -1% and -2%
[2]
  inhibition: 2% and 3%
[3]
  inhibition: -1%

## CN1CCN(C(=O)c2ccc(NC(=O)Nc3ccc(N(C)c4ccnc(Nc5ccc(CS(C)(=O)=O)cc5)n4)cc3)cc2)CC1
[1]
  inhibition: 14% and 13%
[2]
  inhibition: 1% and 2%
[3]
  inhibition: -5% and -8%

## [O-][S+]1CCN(Cc2ccc(-c3ccc4ncnc(Nc5ccc(OCc6ccccc6)c(Cl)c5)c4c3)o2)CC1
[1]
  inhibition: -4% and -6%
[2]
  inhibition: 0% and -1%
[3]
  inhibition: -2% and 0%

## COc1ccc2ncn(-c3cc(O[C@H](C)c4ccccc4C(F)(F)F)c(C(N)=O)s3)c2c1
[1]
  inhibition: -8% and -6%
[2]
  inhibition: 0% and -1%
[3]
  inhibition: 0% and -2%

## COc1cc2ncnc(Nc3ccc(C)c(O)c3)c2cc1OC
[1]
  inhibition: 3% and 1%
[2]
  inhibition: 0% and 1%
[3]
  inhibition: -7% and -4%

## CNC(=O)c1cccc(C#Cc2cncnc2Nc2ccc(OCc3cccc(F)c3)c(Cl)c2)c1
[1]
  inhibition: 6% and 3%
[2]
  inhibition: -1% and 17%
[3]
  inhibition: -2% and 0%

## COc1cc(Nc2nccc(-c3cnn4ncccc34)n2)cc(OC)c1
[1]
  inhibition: 38% and 33%
[2]
  inhibition: -4% and -2%
[3]
  inhibition: -9%

## COc1ccc(-c2ccncc2)cc1C(N)=O
[1]
  inhibition: 4% and 3%
[2]
  inhibition: -5% and -4%
[3]
  inhibition: 3% and 4%

## CNC(=O)c1sc(-n2cnc3cc(OC)c(OC)cc32)cc1OCc1ccccc1C(F)(F)F
[1]
  inhibition: 3% and 2%
[2]
  inhibition: 2% and 4%
[3]
  inhibition: -5% and -3%

## Fc1cccc(COc2ccc(Nc3ncnc4sc(-c5cccs5)cc34)cc2Cl)c1
[1]
  inhibition: -3% and -2%
[2]
  inhibition: -2% and 0%
[3]
  inhibition: -2% and -3%

## COC(=O)Nc1nc2ccc(Sc3ccc(NC(=O)Nc4cc(C(F)(F)F)ccc4F)cc3)cc2[nH]1
[1]
  inhibition: -3%
[2]
  inhibition: 3%
[3]
  inhibition: -3%

## Nc1nonc1-c1nc2cnccc2n1C1CCCCC1
[1]
  inhibition: 36% and 37%
[2]
  inhibition: 39% and 36%
[3]
  inhibition: -7%

## Nc1nc(-c2cccc(Cl)c2)c(-c2ccc3ncccc3n2)s1
[1]
  inhibition: 5% and 7%
[2]
  inhibition: 3% and -7%
[3]
  inhibition: -3% and -1%

## NS(=O)(=O)c1cccc(Nc2cc(-c3ccc(F)cc3)n[nH]2)c1
[1]
  inhibition: 23% and 21%
[2]
  inhibition: 0% and -3%
[3]
  inhibition: -2%

## COc1cc2c(cc1Nc1nc(Nc3ccsc3C(N)=O)c3cc[nH]c3n1)N(C(=O)CN(C)C)CCC2(C)C
[1]
  inhibition: 57% and 54%
[2]
  inhibition: 1% and 2%
[3]
  inhibition: -5% and -1%

## O=C(Nc1n[nH]c2cc(-c3cc(F)ccc3F)ccc12)C1CC1
[1]
  inhibition: -4% and -2%
[2]
  inhibition: 2%
[3]
  inhibition: -2% and -5%

## Cc1cc(O)cc(C)c1/C=C/c1cncc(C(=O)OC(C)(C)C)c1
[1]
  inhibition: 0% and -2%
[2]
  inhibition: -1% and 0%
[3]
  inhibition: -1% and -2%

## COc1ccc2ncn(-c3cc(O[C@H](C)c4ccccc4Cl)c(C(N)=O)s3)c2c1
[1]
  inhibition: 0% and -4%
[2]
  inhibition: 1% and -8%
[3]
  inhibition: 6% and 3%

## CN1CCC(n2cnc(-c3ccc(F)cc3)c2-c2ccnc(NCCO)n2)CC1
[1]
  inhibition: -6% and -9%
[2]
  inhibition: 0% and 1%
[3]
  inhibition: -3% and -4%

## FC(F)(F)c1cccc(Nc2nccc(-c3cnn4nc(-c5ccccc5)ccc34)n2)c1
[1]
  inhibition: 17% and 7%
[2]
  inhibition: -5% and -4%
[3]
  inhibition: 1% and 2%
